From US20040047894A1, “Preparation for improved dietary utilisation” (priority 2001, published 2004)

Experiments:
[1] = test system: ICR mice; assay: Four-week feeding experiment: bodyweight, feed intake and feed utilization; format: in vivo; details: four weeks
[2] = test system: ICR mice; details: 1.0% calendic acid (ethyl ester) in feed, six weeks
Procedure: 5-6-week-old male and female ICR mice were obtained from Charles River. 18 animals (9 m/w) were randomly assigned to each experimental group. The animals were raised in groups of 3 animals at 20° C. in a 12-hour light/dark cycle. […] It comprised the following components: sucrose, casein, corn starch, DL-methionin, 5.5% of a mixture of vegetable oils (so that the feed comprised 0.6% linolenic acid and 3% linoleic acid of the total lipids), mineral and vitamin mix and Ethoxyquin (0.1 g/kg). In the experimental feed, the amount of vegetable oils was replaced by the corresponding amount of calendic acid. Calendic acid was present here as the ethyl ester and was obtained from calendula oil (BiRo, Sommerschenburg, Germany).
After a one-week adaptation period on control feed, a six-week experiment was carried out. Body weight and feed intake were measured weekly. At the end of the study the animals were killed and viscera and organs such as liver, heart and lungs were removed. The empty carcasses were frozen in liquid nitrogen, homogenized, and the contents of fat, protein and ash were determined by standard methods.

For `CCCCC\C=C/C=C/C=C/CCCCCCC(=O)O` [Calendic acid, calendic acid], the “feed intake, male animals” value ([1]; male ICR mice, calendula oil 0.5-2.0% in feed) was “dose-dependent effect towards reduced feed intake”, the “feed utilization, male animals” value ([1]; male ICR mice, calendula oil 0.5-2.0% in feed, dose-dependent, FIG. 3) was “significantly improved” and the weight gain ([1]; male and female ICR mice, calendula oil 0.5-2.0% in feed, FIG. 1) was “without affecting weight gain”. The feed intake ([1]; male and female ICR mice, corn oil in feed replaced by crude calendula oil 0.5, 1.0 or 2.0% (approx. 62% calendic acid as triglyceride), FIG. 2) was “reduced feed intake”, the “changes in body weight versus control group” value ([2]; ICR mice) was “comparable” and the “fat content in the experimental animals” value ([2]; ICR mice, effect greater in male than in female animals) was “significantly decreased the fat content”. For the same compound, the “Body fat content (in % of body composition), female animals” value ([2]; female ICR mice, control 10.3% fat) was 9.5% fat and the “Body fat content (in % of body composition), male animals” value ([2]; male ICR mice, control 12.2% fat) was 8.0% fat.
